# Active and inactive are the calls of the source.
# Experiments:
# [1] = cells; type: functional, cell-based
# [2] = cells; type: functional, cell-based; remark: listed apart in the source
# [3] = target: T1, Fatty acid synthase (Homo sapiens, UniProt P49327); experiment: inhibition of human FAS-TE enzyme activity – biochemical, kinetic fluorescence intensity, dose response (AID 624326); type: functional;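 also: rate of fluorescence rise from hydrolysis of a fluorogenic O-methyl fluorescein ester substrate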
# [4] = target: T1, Fatty acid synthase; experiment: inhibition of human FAS-TE enzyme activity – biochemical, endpoint fluorescence intensity, uHTS hits, dose response (AID 624327); type: functional;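 also: fluorescence from hydrolysis of an O-methyl fluorescein acyl ester substrate by the enzyme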
# [5] = target: T2, Leucine aminopeptidase (Plasmodium falciparum 3D7, UniProt Q8IL11); experiment: P. falciparum M17LAP inhibitors, primary screen, biochemical, fluorogenic H-Leu-NHMec substrate, 1536-well (AID 1619); type: functional
# T2 sequence (Q8IL11 whole entry): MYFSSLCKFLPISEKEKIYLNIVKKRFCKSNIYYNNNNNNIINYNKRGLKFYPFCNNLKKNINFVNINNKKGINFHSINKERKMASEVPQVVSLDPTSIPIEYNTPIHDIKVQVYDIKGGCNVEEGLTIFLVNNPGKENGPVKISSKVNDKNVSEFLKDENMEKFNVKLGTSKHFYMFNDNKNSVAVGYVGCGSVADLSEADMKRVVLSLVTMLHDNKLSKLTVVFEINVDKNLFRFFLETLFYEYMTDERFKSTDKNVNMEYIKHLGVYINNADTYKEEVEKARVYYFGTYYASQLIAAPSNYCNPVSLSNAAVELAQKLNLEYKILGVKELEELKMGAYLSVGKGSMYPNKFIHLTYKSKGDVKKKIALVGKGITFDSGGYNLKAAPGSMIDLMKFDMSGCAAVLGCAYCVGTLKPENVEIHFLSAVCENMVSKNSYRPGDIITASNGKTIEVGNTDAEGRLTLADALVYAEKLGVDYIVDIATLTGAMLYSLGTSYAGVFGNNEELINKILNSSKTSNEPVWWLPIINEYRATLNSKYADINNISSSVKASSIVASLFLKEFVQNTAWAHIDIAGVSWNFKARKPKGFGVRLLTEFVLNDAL
# [6] = target: T3, Rac GTPase-activating protein 1 (Homo sapiens, UniProt Q9H0H5); experiment: blockers of MgcRacGAP-driven Rac1 GTP hydrolysis – biochemical, ADP Hunter fluorescence, primary and confirmatory, confirmation (AID 624330); type: functional
# T3 sequence (Q9H0H5 whole entry): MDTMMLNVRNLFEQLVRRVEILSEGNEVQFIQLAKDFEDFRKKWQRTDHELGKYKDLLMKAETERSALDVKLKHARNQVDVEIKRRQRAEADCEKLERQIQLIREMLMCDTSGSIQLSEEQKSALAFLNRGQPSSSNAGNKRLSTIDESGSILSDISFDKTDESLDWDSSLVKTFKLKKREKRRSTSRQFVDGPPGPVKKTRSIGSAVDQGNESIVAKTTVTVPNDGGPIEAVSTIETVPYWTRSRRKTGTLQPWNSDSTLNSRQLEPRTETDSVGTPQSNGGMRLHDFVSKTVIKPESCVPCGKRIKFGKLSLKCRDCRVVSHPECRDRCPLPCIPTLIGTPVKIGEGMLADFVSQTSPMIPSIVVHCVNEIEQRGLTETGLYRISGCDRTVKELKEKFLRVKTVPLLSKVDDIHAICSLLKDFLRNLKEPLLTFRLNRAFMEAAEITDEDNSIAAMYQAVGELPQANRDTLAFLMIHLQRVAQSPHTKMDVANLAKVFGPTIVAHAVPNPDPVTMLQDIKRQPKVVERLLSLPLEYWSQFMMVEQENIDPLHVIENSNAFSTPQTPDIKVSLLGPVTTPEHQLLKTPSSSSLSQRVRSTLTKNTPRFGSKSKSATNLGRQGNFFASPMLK
# [7] = target: T4, Calpain-2 catalytic subunit (Sus scrofa, UniProt P43367); experiment: m-calpain protease blockers, concentration series – biochemical, fluorogenic peptide substrate, dose response (AID 1420); type: functional
# T4 sequence (P43367 whole entry): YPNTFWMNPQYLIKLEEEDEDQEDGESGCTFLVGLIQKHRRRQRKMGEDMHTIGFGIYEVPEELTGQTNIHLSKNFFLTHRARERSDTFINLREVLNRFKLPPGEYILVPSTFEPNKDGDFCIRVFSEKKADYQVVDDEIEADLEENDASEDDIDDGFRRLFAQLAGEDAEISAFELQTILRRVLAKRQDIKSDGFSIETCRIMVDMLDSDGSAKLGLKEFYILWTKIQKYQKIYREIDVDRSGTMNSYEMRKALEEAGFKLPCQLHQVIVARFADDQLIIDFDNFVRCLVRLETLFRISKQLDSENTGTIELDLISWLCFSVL
# [8] = THP-1 cell cytotoxicity, dose response, cytotoxicity control for non-replicating M. tuberculosis project (AID 489025); type: functional
# [9] = blockers of HIV-1 envelope-mediated cell-cell fusion – cherry-pick, dose response (AID 652057); type: functional, cell-based
# [10] = blockers of HIV-1 ZM109 envelope-driven cell-cell fusion – HeLa effector, CEM target cells, luciferase, cherry-pick, dose response (AID 652058); type: functional, cell-based;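 also: luciferase signal from HIV-1 Env mediated cell-cell fusion of effector and target cells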
# [11] = off-target signal loss in HeLa-CEM21 co-culture – HeLa F-luc CTL cells, cherry-picked, counter-screen for HIV-1 Env fusion inhibitor project, dose response (AID 652040); type: functional, cell-based;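 also: potency for signal decrease marking cytotoxic or nonspecific inhibition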
# [12] = HIV-1 AD8 envelope cell-cell fusion blockers – cherry-pick, dose response (AID 652062); type: functional, cell-based;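 also: luciferase signal from cell-cell fusion driven by HIV-1 clade B AD8 Env; potency is for inhibitors of fusion seen as a drop in luminescence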
# T1 sequence (P49327 whole entry): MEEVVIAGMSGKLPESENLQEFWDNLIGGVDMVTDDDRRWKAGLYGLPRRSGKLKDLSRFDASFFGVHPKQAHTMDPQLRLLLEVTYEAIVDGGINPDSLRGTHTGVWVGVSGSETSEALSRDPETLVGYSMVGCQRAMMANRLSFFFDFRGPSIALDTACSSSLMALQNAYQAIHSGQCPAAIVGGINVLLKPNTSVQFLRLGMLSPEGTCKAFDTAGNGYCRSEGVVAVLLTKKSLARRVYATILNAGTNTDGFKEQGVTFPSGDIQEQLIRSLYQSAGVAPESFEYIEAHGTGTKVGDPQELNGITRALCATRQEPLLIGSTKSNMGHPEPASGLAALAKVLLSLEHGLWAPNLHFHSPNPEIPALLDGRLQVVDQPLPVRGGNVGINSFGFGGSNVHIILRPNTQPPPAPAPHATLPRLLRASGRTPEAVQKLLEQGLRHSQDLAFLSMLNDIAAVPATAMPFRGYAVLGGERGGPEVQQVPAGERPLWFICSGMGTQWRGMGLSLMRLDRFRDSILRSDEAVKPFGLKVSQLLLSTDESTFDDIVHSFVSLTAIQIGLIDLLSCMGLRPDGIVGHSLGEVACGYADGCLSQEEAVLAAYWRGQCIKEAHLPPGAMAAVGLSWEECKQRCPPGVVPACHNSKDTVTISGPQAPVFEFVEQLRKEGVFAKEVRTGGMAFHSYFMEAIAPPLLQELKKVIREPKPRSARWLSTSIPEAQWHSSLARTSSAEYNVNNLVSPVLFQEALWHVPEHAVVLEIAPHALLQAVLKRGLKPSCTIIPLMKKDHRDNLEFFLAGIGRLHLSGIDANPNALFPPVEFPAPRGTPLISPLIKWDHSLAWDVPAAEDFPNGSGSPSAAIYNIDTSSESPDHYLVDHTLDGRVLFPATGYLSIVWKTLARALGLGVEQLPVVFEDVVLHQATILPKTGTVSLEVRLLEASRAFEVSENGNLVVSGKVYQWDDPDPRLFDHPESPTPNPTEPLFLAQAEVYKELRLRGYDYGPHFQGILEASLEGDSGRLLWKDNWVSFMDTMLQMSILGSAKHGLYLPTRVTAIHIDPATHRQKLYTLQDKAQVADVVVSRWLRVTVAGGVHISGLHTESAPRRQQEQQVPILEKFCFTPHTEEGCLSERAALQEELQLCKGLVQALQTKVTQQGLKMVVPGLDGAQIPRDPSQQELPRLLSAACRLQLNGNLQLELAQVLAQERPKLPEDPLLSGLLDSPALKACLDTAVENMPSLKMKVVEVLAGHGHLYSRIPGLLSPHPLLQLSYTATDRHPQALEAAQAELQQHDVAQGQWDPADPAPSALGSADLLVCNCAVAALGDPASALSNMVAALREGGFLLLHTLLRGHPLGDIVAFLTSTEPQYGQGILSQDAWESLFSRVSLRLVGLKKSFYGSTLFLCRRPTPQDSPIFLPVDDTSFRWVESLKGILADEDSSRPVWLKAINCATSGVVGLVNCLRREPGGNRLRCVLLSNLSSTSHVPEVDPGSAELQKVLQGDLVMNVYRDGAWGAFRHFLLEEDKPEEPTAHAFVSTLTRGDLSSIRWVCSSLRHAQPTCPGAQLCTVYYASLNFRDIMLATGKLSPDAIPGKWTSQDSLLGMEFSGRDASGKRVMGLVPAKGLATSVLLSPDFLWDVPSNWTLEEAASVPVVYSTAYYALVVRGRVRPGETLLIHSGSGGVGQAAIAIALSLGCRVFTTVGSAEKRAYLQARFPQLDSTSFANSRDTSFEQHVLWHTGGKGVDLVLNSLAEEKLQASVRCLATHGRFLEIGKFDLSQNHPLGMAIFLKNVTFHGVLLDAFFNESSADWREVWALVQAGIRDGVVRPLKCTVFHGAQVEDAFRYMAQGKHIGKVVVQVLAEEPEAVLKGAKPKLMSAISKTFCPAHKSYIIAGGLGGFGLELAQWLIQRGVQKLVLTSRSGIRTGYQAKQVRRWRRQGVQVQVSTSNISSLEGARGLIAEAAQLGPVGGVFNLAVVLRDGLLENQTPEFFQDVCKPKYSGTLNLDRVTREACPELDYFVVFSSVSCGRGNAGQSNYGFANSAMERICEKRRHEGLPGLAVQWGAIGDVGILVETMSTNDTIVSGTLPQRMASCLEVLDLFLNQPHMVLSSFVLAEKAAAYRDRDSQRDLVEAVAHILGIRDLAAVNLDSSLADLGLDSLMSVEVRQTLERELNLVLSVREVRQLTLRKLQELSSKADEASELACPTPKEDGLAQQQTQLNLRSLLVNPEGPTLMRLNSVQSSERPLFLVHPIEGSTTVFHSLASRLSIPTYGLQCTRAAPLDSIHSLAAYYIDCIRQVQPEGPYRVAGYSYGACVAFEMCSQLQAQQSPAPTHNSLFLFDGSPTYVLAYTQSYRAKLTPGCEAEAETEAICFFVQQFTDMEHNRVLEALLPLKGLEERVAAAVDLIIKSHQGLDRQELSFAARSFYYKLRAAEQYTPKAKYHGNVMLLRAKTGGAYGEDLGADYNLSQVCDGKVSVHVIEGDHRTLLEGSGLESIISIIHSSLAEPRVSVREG
smiles,measurement,setting,value
Cc1cccc(N=C(S)N2CCC(N(C)CC3CCCO3)CC2)c1 (stereo unspecified),EC50,[1],> 350 µM (not active)
same,EC50,[2],> 350 µM (not active)
COc1ccc([N+](=O)[O-])cc1NC(=O)C1(c2ccccc2)CCOCC1,IC50,[3],16.5 µM (active)
same,IC50,[4],19.6 µM (active)
Cc1onc(-c2c(Cl)cccc2Cl)c1C(=O)N=C(N)N1CCCC1,EC50,[1],> 350 µM (not active)
same,EC50,[2],> 350 µM (not active)
CCC1(C)Cc2sc3c(=O)[nH]c(=S)[nH]c3c2CO1 (stereo unspecified),IC50,[5],29.3 µM (active)
CCOc1ccc(Nc2nnc(S)s2)cc1,IC50,[5],< 1 µM (active)
same,IC50,[6],54.8 µM (active)
CN1CCN(Cc2nc3ccccc3c(=O)n2Cc2nc(-c3ccccc3F)cs2)CC1,EC50,[1],> 350 µM (not active)
same,EC50,[2],45.4 µM (active)
Nc1[nH]nc2nc(N3CCCC3)nc(-c3ccccc3)c12,IC50,[5],33.7 µM (active)
CC(NC(=O)C(C(=O)c1cccc([N+](=O)[O-])c1)n1cc(Cl)ccc1=O)c1ccccc1 (stereo unspecified),IC50,[3],7.89 µM (active)
same,IC50,[4],8.63 µM (active)
O=C(O)c1cnn2cc(-c3n[nH]cc3[N+](=O)[O-])cnc12,IC50,[5],13.3 µM (active)
CC(C)=CC1C(C(=O)Nc2ccc(Br)cn2)C1(C)C (stereo unspecified),IC50,[7],6.34 µM (not active)
same,CC50,[8],> 40 µM (active)
COc1ccc(-c2cc(=O)oc3c(C)c(OCc4nn[nH]n4)ccc23)cc1,IC50,[3],5.32 µM (active)
same,IC50,[4],9.18 µM (active)
CC(=O)N1N=C(c2cccc([N+](=O)[O-])c2)OC1c1cccc(Br)c1 (stereo unspecified),IC50,[3],11.9 µM (active)
same,IC50,[4],9.14 µM (active)
CCN(CC)c1ccc(NC(=O)Cn2nnc(-c3cccc(OC)c3OC)n2)c(C)c1,EC50,[1],> 350 µM (not active)
same,IC50,[5],< 1 µM (active)
same,EC50,[2],> 350 µM (not active)
CCCOc1ccc(N2C(=O)CC(SCCN)C2=O)cc1 (stereo unspecified),IC50,[5],12 µM (active)
COC(=O)c1cc(C(=O)NCc2ccc3c(c2)OCO3)cc([N+](=O)[O-])c1,IC50,[3],11.7 µM (active)
same,IC50,[4],11.1 µM (active)
O=C(c1cc2ccccc2o1)N1CCN(Cc2ccc3c(c2)OCO3)CC1,EC50,[1],> 350 µM (not active)
same,EC50,[2],> 350 µM (not active)
Cc1noc(NS(=O)(=O)c2ccc(NC(=O)Nc3ccc(Cl)c(Cl)c3)cc2)c1C,IC50,[5],9.03 µM (active)
COc1ccc(-c2nnn(CC(=O)N(Cc3cccs3)C(C)C(=O)NC3CCCC3)n2)cc1OC (stereo unspecified),AC50,[9],5.2 µM (active)
same,AC50,[10],9.35 µM (active)
same,AC50,[11],24.8 µM (active)
same,AC50,[12],10.1 µM (active)
CCn1cc([N+](=O)[O-])c(C(=O)N2N=C(c3ccccc3)CC2c2ccc([N+](=O)[O-])cc2)n1 (stereo unspecified),IC50,[3],13.2 µM (active)
same,IC50,[4],15.6 µM (active)
O=C1NCCN(Cc2cccc(Oc3ccccc3)c2)C1CC(=O)N1CCCCC1 (stereo unspecified),AC50,[9],3.76 µM (active)
same,AC50,[10],10.9 µM (active)
same,AC50,[11],11.1 µM (active)
same,AC50,[12],8.77 µM (active)
Cc1ccc(C(C(=O)NC2CCCCC2)N(C(=O)c2csnn2)C2CCCC2)o1 (stereo unspecified),AC50,[9],14.1 µM (active)
same,AC50,[10],3.63 µM (active)
same,AC50,[11],13.5 µM (active)
same,AC50,[12],6.08 µM (active)
O=C(Cn1ncc2c(=O)oc3ccccc3c21)N1CCC(N2CCCCC2)CC1,AC50,[11],38.2 µM (active)
same,AC50,[12],2.31 µM (active)
CC1CCN(C(=O)COC(=O)c2cc([N+](=O)[O-])ccc2N2CCOCC2)CC1,IC50,[3],5.23 µM (active)
same,IC50,[4],3.58 µM (active)
C[C@@]12CC(=O)NC1N(C(=O)c1cccc(C(F)(F)F)c1)C(c1ccccc1O)C2 (stereo partly specified),AC50,[9],3.74 µM (active)
same,AC50,[10],7.54 µM (active)
same,AC50,[11],7.18 µM (active)
same,AC50,[12],26.7 µM (active)
O=C(CN1C(=O)C2C3C=CC(C3)C2C1=O)NCC1COc2ccccc2O1 (stereo unspecified),IC50,[5],2.19 µM (active)
C=CCNC(=O)/C(=C/c1cn(-c2ccccc2)nc1-c1cccc([N+](=O)[O-])c1)NC(=O)c1ccccc1,EC50,[1],> 350 µM (not active)
same,EC50,[2],> 350 µM (not active)
Cc1cc(=O)oc2cc(OCC(=O)N3CCN(C(C)c4ccccc4)CC3)c(Cl)cc12 (stereo unspecified),IC50,[3],8.55 µM (active)
same,IC50,[4],8.39 µM (active)
CN(c1ccccc1)S(=O)(=O)c1cccc(NC(=O)CCNC(=O)c2ccc([N+](=O)[O-])cc2)c1,IC50,[3],9.59 µM (active)
same,IC50,[4],7.63 µM (active)
CCOC(=O)[C@@H]1[C@H]2COc3cc(OC)ccc3[C@H]2N2C(=O)N(c3cccc(Cl)c3)C(=O)[C@@]12C,IC50,[3],13.6 µM (active)
same,IC50,[4],23.7 µM (inactive)
COc1ccc(CN(C)C(=O)COC(=O)c2cc([N+](=O)[O-])ccc2N2CCCC2)c(OC)c1OC,IC50,[3],6.71 µM (active)
same,IC50,[4],5.42 µM (active)
Cc1ccc(S(=O)(=O)c2nnn3c2nc(N2CCC(C(N)=O)CC2)c2ccccc23)cc1C,IC50,[3],8.84 µM (active)
same,IC50,[4],11.4 µM (active)
CCc1nc2c(OCc3ccc(Cl)cc3)cccn2c1N(C=O)Cc1ccccc1,IC50,[3],3.71 µM (active)
same,IC50,[4],6.9 µM (active)
CN1C2CCC1/C(=C/c1cccn1C)C(=O)/C2=C\c1cccn1C,IC50,[5],51.9 µM (active)
CCCc1nc2ccccc2c(=O)n1/N=C/c1ccccc1O,EC50,[1],> 350 µM (not active)
same,EC50,[2],> 350 µM (not active)
COc1ccc(C/C(C)=N/NS(=O)(=O)c2ccc(Br)cc2)cc1,EC50,[1],> 350 µM (not active)
same,EC50,[2],> 350 µM (not active)
C/C=C/C=N/NC(=O)CN(c1ccc(Br)cc1)S(=O)(=O)c1ccccc1,IC50,[3],10.1 µM (active)
same,IC50,[4],10.6 µM (active)
COc1cccc(N/N=C(\C#N)S(=O)(=O)C(C)(C)C)c1,IC50,[5],26.7 µM (active)
CC1=NNC(=O)C1CCC(=O)N/N=C\c1cccc(Cl)c1 (stereo unspecified),IC50,[5],20.9 µM (active)

# Reference: ChEMBL document CHEMBL1201862, “PubChem BioAssay data set” (2004)
